# PubChem BioAssay (NCI)
# Where “and” joins values, the source holds several entries; their conditions need not be identical. Equal entries are not always repeated.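 Growth conditions: 96-well plates. Treatment: test compound, 48 hours, 5 concentrations. Analysis: linear interpolation between bracketing concentrations; unreached endpoints set to highest concentration. GI50 marks 50% less growth. The concentration for full growth arrest is given as TGI.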
# Assays:
# Assay in all cases: growth of human tumour cells (NCI), 48 h
# BT-549 breast = tested on: BT-549 breast
# COLO 205 colon = tested on: COLO 205 colon
# DU-145 prostate = tested on: DU-145 prostate
# EKVX NSCLC = tested on: EKVX NSCLC
# MOLT-4 leukemia = tested on: MOLT-4 leukemia
# RPMI-8226 leukemia = tested on: RPMI-8226 leukemia
# SK-MEL-28 melanoma = tested on: SK-MEL-28 melanoma
# TK-10 renal = tested on: TK-10 renal
Structure (SMILES),GI50 (BT-549 breast),TGI (BT-549 breast),GI50 (COLO 205 colon),TGI (COLO 205 colon),GI50 (DU-145 prostate),TGI (DU-145 prostate),GI50 (EKVX NSCLC),TGI (EKVX NSCLC),GI50 (MOLT-4 leukemia),TGI (MOLT-4 leukemia),GI50 (RPMI-8226 leukemia),TGI (RPMI-8226 leukemia),GI50 (SK-MEL-28 melanoma),TGI (SK-MEL-28 melanoma),GI50 (TK-10 renal),TGI (TK-10 renal)
O=C1NC(=O)[C@@H](c2cn3c4c(cccc24)CCC3)[C@@H]1c1c[nH]c2ccccc12,0.522 µM and 1.1 µM,> 10 µM and 17.7 µM,0.273 µM and 0.326 µM,0.973 µM and 1.14 µM,0.417 µM and 0.442 µM,> 10 µM and 6.81 µM,0.482 µM and 0.991 µM,> 10 µM and 29.3 µM,0.717 µM and 0.891 µM,> 10 µM and 18.1 µM,0.379 µM and 2.93 µM,> 93.5 µM,1.04 µM and 0.66 µM,> 10 µM and 19.6 µM,0.57 µM and 4.7 µM,> 10 µM and 35.5 µM
CCOC(=O)Oc1c(OC)cc(C(=O)c2ccc(OC)c(OC(=O)CCl)c2OC)cc1OC,0.996 µM,9.5 µM,9.57 µM,66.7 µM,1.83 µM,> 100 µM,3.63 µM,> 100 µM,0.994 µM,> 100 µM,1.98 µM,> 100 µM,2.31 µM,> 100 µM,> 100 µM,> 100 µM
O=C1CCCSCCCC(=O)CCCSCCC1,,> 100 µM,,> 100 µM,,> 100 µM,,> 100 µM,,> 100 µM,,,,> 100 µM,,> 100 µM
NCCCn1c2c(c3ccccc3c1=O)C(=O)c1cc3c(cc1-2)OCO3,< 0.01 µM,1.77 µM,0.121 µM,1.98 µM,0.137 µM,0.638 µM,1.23 µM,4.79 µM,< 0.01 µM,,< 0.0214 µM,0.258 µM,2.23 µM,9.37 µM,,4.17 µM
COc1ccc(-c2nc3sccn3c2/C=C/C(=O)c2cc(OC)c(OC)c(OC)c2)cc1OC,2.43 µM,7.95 µM,2.41 µM,5.98 µM,,,3.92 µM,> 100 µM,2.07 µM,6.47 µM,1.19 µM,4.95 µM,,,4.8 µM,> 100 µM
C=C1C(=O)O[C@H]2[C@H]1CC/C(COC(=O)/C=C/c1cccnc1)=C\CC[C@@]1(C)O[C@@H]21,1.18 µM,2.68 µM,1.06 µM,2.82 µM,1.39 µM,3.01 µM,3.28 µM,14.3 µM,1.75 µM,4.9 µM,1.9 µM,6.15 µM,1.26 µM,2.61 µM,2.01 µM,4.06 µM
O=C(O)CSCC(=O)c1ccccc1,,> 100 µM,,> 100 µM,,> 100 µM,,> 100 µM,,> 100 µM,,> 100 µM,,> 100 µM,,> 100 µM
C=C1C(=O)OC2C1C(OC(=O)/C(C)=C/C)CC(O)(CCl)C1C(OC(C)=O)C=C(C)C21O (stereo not drawn),,22.8 µM,,24.3 µM,,29 µM,,24.7 µM,,21.1 µM,,31.3 µM,,27.9 µM,,27.3 µM
O=c1oc2ccccc2cc1-c1ccc([N+](=O)[O-])cc1,,> 100 µM,,> 100 µM,,> 100 µM,,> 100 µM,,> 100 µM,,> 100 µM,,> 100 µM,,> 100 µM
CC(C)(C)[Si](C)(C)OC1[C@@H](O[Si](C)(C)C(C)(C)C)[C@@H](CNC(=O)NC(=O)NC(=O)CI)O[C@H]1n1cnc2c(NC(=O)Nc3ccccc3)ncnc21 (stereo partly drawn),6.89 µM,13.9 µM,6.11 µM,13.2 µM,8.67 µM,20 µM,0.236 µM,1.14 µM,0.718 µM,3.12 µM,0.285 µM,1.76 µM,9.69 µM,22.8 µM,0.21 µM,1.05 µM
CCOC(=O)c1[nH]c2cccc3c2c1CC(Br)C3=O (stereo not drawn),,32.1 µM,,27.2 µM,,30.4 µM,,32.2 µM,,6.33 µM,,26.7 µM,,38.4 µM,,28.1 µM
CS(=O)(=O)c1ccc(Oc2nccc(-c3c(-c4ccc(F)cc4)ncn3C3CCNCC3)n2)cc1,> 25 µM,> 25 µM,> 25 µM,> 25 µM,> 25 µM,> 25 µM,> 25 µM,> 25 µM,> 12.9 µM,> 18.9 µM,> 25 µM,> 25 µM,> 25 µM,> 25 µM,> 25 µM,> 25 µM
Cc1cc(Cl)ccc1NC(=O)/C(Cc1nc2ccc(C(=O)c3ccccc3)cc2[nH]c1=O)=N/NC(=O)c1ccncc1,,> 100 µM,,,,,,> 100 µM,,> 100 µM,,> 100 µM,,> 100 µM,,> 100 µM
O=C(O)C(Cc1ccccc1-c1ccccc1)C(=O)O,,> 100 µM,,> 100 µM,,> 100 µM,,> 100 µM,,> 100 µM,,> 100 µM,,> 100 µM,,> 100 µM
COc1cccc(-c2nc(-c3ccc(NS(=O)(=O)c4ccccc4)cc3)[nH]c2-c2ccnc(Br)c2)c1,2.72 µM,9.21 µM,2.66 µM,12.4 µM,3.69 µM,> 100 µM,2.25 µM,9.06 µM,2.74 µM,> 100 µM,2.49 µM,8.31 µM,2.91 µM,31 µM,3.72 µM,> 100 µM
COc1ccc2c(CN3CCC(CO)CC3)cc3cc4c(cc3c2c1)OCO4,0.6 µM,3.87 µM,0.122 µM,1.07 µM,0.25 µM,12.6 µM,0.415 µM,6.29 µM,0.175 µM,1.44 µM,0.256 µM,0.919 µM,0.326 µM,1.15 µM,0.407 µM,8.65 µM
OCc1ccc(N(Cc2ccc(F)cc2)C2CCC2)cc1Cl,17.7 µM,32.8 µM,3.5 µM,11.5 µM,14.2 µM,28 µM,,,15.7 µM,36.7 µM,3.03 µM,25.4 µM,13.5 µM,26.4 µM,0.0551 µM,0.278 µM
COc1cc2c3c(n(CCCO)c(=O)c2cc1OC)-c1cc2c(cc1C3=O)OCO2,2.22 µM,49 µM,26.4 µM,98 µM,3.22 µM,> 44.3 µM,54.7 µM,> 100 µM,0.841 µM,6.7 µM,11.6 µM,> 78 µM,> 31.2 µM,> 100 µM,34.7 µM,> 100 µM

Structure (SMILES),GI50 (BT-549 breast),TGI (BT-549 breast),GI50 (COLO 205 colon),TGI (COLO 205 colon),GI50 (DU-145 prostate),TGI (DU-145 prostate),GI50 (EKVX NSCLC),TGI (EKVX NSCLC),GI50 (MOLT-4 leukemia),TGI (MOLT-4 leukemia),GI50 (RPMI-8226 leukemia),TGI (RPMI-8226 leukemia),GI50 (SK-MEL-28 melanoma),TGI (SK-MEL-28 melanoma),GI50 (TK-10 renal),TGI (TK-10 renal)
CCN(CC)c1ccc2[nH]c3c(C(N)=O)cc(=O)c(=O)c=3oc2c1,1.7 µM,5.17 µM,3.09 µM,11.3 µM,1.87 µM,7.39 µM,2.79 µM,15.7 µM,,,0.383 µM,4.7 µM,3.76 µM,17.2 µM,,
COc1cc(-c2cc(C(=O)Nc3nc4ccccc4s3)nc3cc(-c4ccccc4)nn23)cc(OC)c1OC,6.33 µM,47 µM,,,65 µM,> 100 µM,42.9 µM,> 100 µM,> 100 µM,> 100 µM,> 100 µM,> 100 µM,3.34 µM,> 100 µM,11.9 µM,32.7 µM
O=C(Nc1cccc(C2=NCCN2)c1)c1ccc(OCCCOc2ccc(C(=O)Nc3cccc(C4=NCCN4)c3)cc2)cc1,,,,,,,,,3.86 µM,> 100 µM,,,,,13.2 µM,35.3 µM
O=P(Oc1ccccc1)(Oc1ccccc1)C(O)c1ccccc1 (stereo not drawn),> 100 µM,> 100 µM,35 µM,> 100 µM,> 100 µM,> 100 µM,26.5 µM,> 100 µM,> 100 µM,> 100 µM,33.3 µM,> 100 µM,85.7 µM,> 100 µM,> 100 µM,> 100 µM
COc1ccc(C(=O)c2cc(OC)c(OC)c(OC)c2)cc1/C=C/C(=O)c1ccc(O)cc1,2.02 µM,5.32 µM,15.1 µM,36.3 µM,1.88 µM,3.45 µM,4.55 µM,19.4 µM,0.841 µM,> 100 µM,1.56 µM,82.9 µM,4.75 µM,17.5 µM,11.8 µM,28.5 µM
COc1c(O)cc2oc3cc(O)c(CC=C(C)C)c(O)c3c(=O)c2c1C/C=C(\C)CCC=C(C)C,,,6.37 µM,11.4 µM,5.98 µM,10.5 µM,4.89 µM,9.75 µM,6.11 µM,16.3 µM,10.6 µM,31.3 µM,5.4 µM,10.3 µM,8.15 µM,15.5 µM
O=C(Oc1cccc(Nc2ncnc3ccccc23)c1)c1ccccc1Cl,24.8 µM,62.3 µM,24 µM,> 100 µM,22.3 µM,> 100 µM,7.4 µM,91.5 µM,> 100 µM,> 100 µM,,,48.7 µM,> 100 µM,8.72 µM,37.8 µM
COc1ccc(/C=C\c2cc(OC)c(OC)c(OC)c2)cc1NC(=O)[C@@H](N)CO,< 0.0139 µM,0.085 µM,< 0.01 µM,0.0153 µM,0.0288 µM,> 100 µM,,,0.0432 µM,> 100 µM,0.0276 µM,20.8 µM,,,19.3 µM,> 100 µM
COc1cccc2c(Nc3ccc(C(=O)NCCNCCO)cc3)cc(-c3ccccc3)nc12,37.3 µM,> 100 µM,23.6 µM,86.6 µM,58.7 µM,> 100 µM,> 100 µM,> 100 µM,,,24.5 µM,60.3 µM,35.2 µM,> 100 µM,30.2 µM,> 100 µM
O=C(CCl)Nc1ccccc1SCc1cc(Cl)cc2c1OCOC2,3.52 µM,11.5 µM,17.3 µM,35.5 µM,15.7 µM,29.4 µM,,,2.6 µM,7.51 µM,6.96 µM,40.6 µM,13.5 µM,26.8 µM,16.9 µM,31.4 µM
COC(=O)c1ccc(-c2nc3cc(F)c(F)cc3nc2C#N)cc1,8.24 µM,16.6 µM,13 µM,33.2 µM,8.7 µM,17.3 µM,9.89 µM,19.5 µM,3.27 µM,12.3 µM,,,9.58 µM,33.9 µM,17.4 µM,42.2 µM
CCNCCNc1cc(-c2ccc(Cl)cc2)c(C#N)c2nc3ccccc3n12,1.75 µM,3.34 µM,1.46 µM,3.27 µM,1.71 µM,3.09 µM,1.6 µM,3.31 µM,,,2.3 µM,4.92 µM,1.8 µM,3.34 µM,2.04 µM,3.62 µM
O=C1CC2(CCCc3sccc32)C(=O)N1 (stereo not drawn),,,,> 100 µM,,> 100 µM,,> 100 µM,,> 100 µM,,> 100 µM,,> 100 µM,,> 100 µM
c1ccc(Oc2c3ccccc3nc3ccccc23)cc1,,,2.61 µM,6.07 µM,3.72 µM,11.2 µM,4.43 µM,20.9 µM,0.82 µM,48 µM,4.75 µM,24.6 µM,11.3 µM,24.1 µM,,
CN(C)CCCNC(=O)c1cc(NC(=O)c2cc(NC(=O)CCCN3c4ccccc4C=Cc4ccccc43)cn2C)cn1C,4.19 µM,69.8 µM,,,10.6 µM,35.4 µM,17 µM,71.3 µM,2.88 µM,> 100 µM,2.29 µM,6.21 µM,,,2.74 µM,13.9 µM
CC1=C(C(=O)Nc2ccc(F)c(Cl)c2)C(c2cccc(O)c2)NC(=S)N1 (stereo not drawn),12.1 µM,36.8 µM,22.2 µM,> 50 µM,> 50 µM,> 50 µM,17.8 µM,> 50 µM,,,30.1 µM,> 50 µM,> 50 µM,> 50 µM,> 50 µM,> 50 µM
O=C1NC(=O)C2=C1CCC2O (stereo not drawn),,,,> 100 µM,,> 100 µM,,> 100 µM,,> 100 µM,,> 100 µM,,> 100 µM,,> 100 µM
Cc1ccc(C)c(-n2c(-c3ccc(Br)cc3)csc2=NC(=O)c2ccccc2F)c1,> 100 µM,> 100 µM,> 100 µM,> 100 µM,> 100 µM,> 100 µM,> 100 µM,> 100 µM,,,,,> 100 µM,> 100 µM,> 100 µM,> 100 µM
